The results in this text go back to patent US6194451A, “Matrix metalloproteinase inhibitors” (Pharmacia & Upjohn S.p.A., priority 1997, dated 2001).

For orientation: IC50 means the concentration needed to halve the response being measured. Broadly, the Ki is the equilibrium dissociation constant of an inhibitor or competing ligand from its target. A lower Ki goes with higher affinity. In general, inhibition refers to the percentage by which the read-out fell short of the control. The solubility is the dissolved amount per volume that the medium holds. A high value points to a readily soluble substance.

Data set [1] concerns release of TNF from THP-1 cells. Put plainly: Cellular Assay (Protocol B): inhibition of release of TNF from LPS-stimulated THP-1 cells. In kind it is cell-based. The settings on record: Homo sapiens, LPS 5 microg/mL, 4 h. How it is done:
For example, the following cell-based assay was used to assess such activity:
THP-1 cells, cultured in RPMI 1640 supplemented with 10% FCS, were distributed into 24-well plates, 1 mL of a suspension of 1×10^6 cells/mL in each well. Compounds to be tested, dissolved in DMSO and diluted with the culture medium (1% final DMSO concentration) were added. Plates were incubated for 30 min at 37° C. in 5% CO2, and lipopolisaccharide (LPS 0111:B4, 5 microg/mL) was added as a stimulant. After a further 4 h incubation, cells were harvested, centrifuged (2,000 rpm, 7 min), and the surnatant was collected and freezed (-20° C.) until analysis. Analysis was run by classical ELISA methodology (monoclonal anti-TNF-a antibody, rabbit capture policlonal antibody, and peroxidated anti-rabbit antibody).

Data set [2] deals with T1, MMP-2 (human gelatinase A) (Homo sapiens, UniProt P08253).
T1 sequence (P08253 110-660): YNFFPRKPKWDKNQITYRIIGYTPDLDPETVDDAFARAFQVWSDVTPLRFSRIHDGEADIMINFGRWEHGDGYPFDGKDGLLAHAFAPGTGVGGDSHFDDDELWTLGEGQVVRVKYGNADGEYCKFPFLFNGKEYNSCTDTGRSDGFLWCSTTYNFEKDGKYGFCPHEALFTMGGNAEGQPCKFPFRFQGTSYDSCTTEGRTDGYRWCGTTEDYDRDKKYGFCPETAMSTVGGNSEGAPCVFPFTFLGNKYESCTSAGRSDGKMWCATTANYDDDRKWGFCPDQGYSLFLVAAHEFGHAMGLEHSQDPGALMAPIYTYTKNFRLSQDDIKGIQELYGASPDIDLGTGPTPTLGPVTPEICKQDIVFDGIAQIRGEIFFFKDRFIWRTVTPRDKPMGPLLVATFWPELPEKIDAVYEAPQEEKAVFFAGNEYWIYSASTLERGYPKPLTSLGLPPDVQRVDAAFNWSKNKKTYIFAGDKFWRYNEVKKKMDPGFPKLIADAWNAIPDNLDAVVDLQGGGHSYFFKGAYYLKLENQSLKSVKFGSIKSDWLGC
Put plainly: Biochemical Assay (Protocol A): inhibition of human gelatinase A, fluorimetric peptide substrate. The note with it: MMP-2, pH 7.4, 37° C. The source says:
(§1) As mentioned above, although low molecular weight MMP inhibitors, including hydroxamates of general formula (A), are already known, there is a strong need for better and diversified molecules for their use in medicine, that is in particular in the control or prevention of degenerative joint diseases such as rheumatoid arthritis and osteoarthritis, or in the management of multiple sclerosis, or in the treatment of invasive tumors. […] For example, the following protocol was used to assess the biochemical activity of compounds of formula (I) against MMP-1, MMP-2, and MMP-3 (respectively, human interstitial collagenase, gelatinase A, and stromelysin-1).
(§2) Human gelatinase-A (MMP-2) was obtained as pro-enzyme (72 kDa) and was activated with 1 mM 4-aminophenylmercuric acetate for 30 min at 37° C. immediately prior to use. Human stromelysin-1 (MMP-3) was obtained as a recombinant pro-enzyme isolated either from E. coli or from baculovirus infected Sf9 insect cells and activated either by heat (1 h, 55° C.) or by 5 mg/l trypsin (30 min, 37° C.) before addition of soybean trypsin inhibitor, finally removed by centrifugation.
(§3) All enzyme assays to determine values of the enzyme-inhibitor dissociation constants were performed using the peptide substrate (7-methoxycoumarin-4-yl)Acetyl-Pro-Leu-Gly-Leu-(3-[2,4-dinitrophenyl]-L-2,3-diaminopropionyl)-Ala-Arg-NH2 (Mca-Pro-Leu-Gly-Leu-Dpa-Ala-Arg--NH2) (C. G. Knight et al., FEBS Lett. 296:263-266, 1992). The enzymes cleave at the Gly-Leu bond removing the internally quenching Dpa group. The release of the highly fluorescent peptide Mca-Pro-Leu was followed fluorimetrically setting the excitation wavelength at 326 nm (bandwidth 5 nm) and the emission at 392 nm (bandwidth 20 nm).
(§4) Continuous fluorescence assay was carried out using a Perkin Elmer LS-50 Fluorescence Spectrophotometer fitted with a thermostatted four position stirring cell changer. Inhibitors were dissolved in the assay buffer ([…] Tris/HCl pH 7.4 containing 0.15 M NaCl, 10 mM CaCl2, 0.01 mM ZnCl2 and 0.05% Brij 35) thermostatted at 37° C. The reaction was started by the addition of substrate ([…]), followed by the addition of the enzyme (e.g. 1.0 nM collagenase, 0.04 nM gelatinase, or 3.0 nM stromelysin) and the increase in fluorescence was monitored over 30 min. The run was repeated at different concentrations of inhibitors in the range 0.1-10000 nM and data at inhibitor concentration in the region if their enzyme-inhibitor dissociation constants were used for calculation.
(§5) Substrate consumption was within 5% of the initial concentration and data outside this range were discarded. The Michaelis constants (Km) for the enzyme-substrate complexes is […] or greater (C. G. Knight et al., reference above), so that the factor (1+S/Km) can be approximated to unity without appreciable error.

Data set [3] has as its target T2, MMP-1 (human interstitial collagenase) (Homo sapiens, UniProt P03956).
T2 construct: truncated recombinant enzyme encompassing residues 101-269
T2 sequence (P03956 101-269): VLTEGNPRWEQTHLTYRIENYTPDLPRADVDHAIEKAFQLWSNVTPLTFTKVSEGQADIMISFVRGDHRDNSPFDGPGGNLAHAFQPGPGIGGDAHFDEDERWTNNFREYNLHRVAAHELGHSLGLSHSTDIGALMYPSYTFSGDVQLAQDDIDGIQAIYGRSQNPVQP
As to the kind of experiment: Biochemical Assay (Protocol A): inhibition of human collagenase, fluorimetric peptide substrate. The note with it: MMP-1, pH 7.4, 37° C.
Description: as §1, §2, §3, §4, §5

For data set [4], the target named is T3, MMP-3 (human stromelysin-1) (Homo sapiens, UniProt P08254).
T3 construct: host or cells: E. coli or baculovirus-infected Sf9 insect cells
T3 sequence (P08254 100-477): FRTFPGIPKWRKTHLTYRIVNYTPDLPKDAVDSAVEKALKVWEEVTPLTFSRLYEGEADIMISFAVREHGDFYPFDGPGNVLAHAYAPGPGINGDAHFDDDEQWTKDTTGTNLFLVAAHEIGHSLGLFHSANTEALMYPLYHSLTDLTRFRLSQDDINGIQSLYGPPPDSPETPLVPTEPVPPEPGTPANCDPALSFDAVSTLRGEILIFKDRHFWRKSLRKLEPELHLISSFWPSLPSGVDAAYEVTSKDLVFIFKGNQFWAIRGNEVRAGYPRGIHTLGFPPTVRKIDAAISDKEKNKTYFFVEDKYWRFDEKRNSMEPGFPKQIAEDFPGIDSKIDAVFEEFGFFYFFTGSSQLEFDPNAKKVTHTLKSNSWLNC
As to the kind of experiment: Biochemical Assay (Protocol A): inhibition of human stromelysin-1, fluorimetric peptide substrate. The note with it: MMP-3, pH 7.4, 37° C.
Description: as §1, §2, §3, §4, §5

The nature of another data set: Aqueous solubility. The note with it: water, pH 7.0, 25° C. Format: physicochemical. As to the method:
Further, several compounds of formula (I), in particular when R2 is hydroxy, and when R1 is hydroxymethyl, have enhanced water solubility as compared to the vast majority of MMP inhibitors of the prior art. An aqueous solubility threshold, which may vary widely but can be roughly set in the range of 1-10 mg/mL, makes systemic administration easy, and more than often is essential to good oral bioavailability.

Each structure is given as a SMILES string. Values after ≈ are worked out from the molar mass of the structure shown.

As to `CNC(=O)[C@@H](NC(=O)[C@H](CC(C)C)[C@](O)(COC1CCCCO1)C(=O)NO)C(C)(C)C` (stereo partly drawn) [Example 2, [(2R,3S)-3-Hydroxy-4-hydroxyamino-2-isobutyl-3-(tetrahydro-pyran-2-yloxymethyl)succinyl]-L-tert-leucine-N-methylamide], the 50% inhibitory concentration (IC50) in data set [1] stood at 5200 nM.
For `CNC(=O)[C@H](Cc1ccccc1)NC(=O)[C@H](CC(C)C)[C@](O)(COC1CCCCO1)C(=O)NO` (stereo partly drawn) [Example 5, [(2R,3S)-3-Hydroxy-4-hydroxyamino-2-isobutyl-3-(tetrahydro-pyran-2-yloxymethyl)succinyl]-L-phenylalanine-N-methylamide], the 50% inhibitory concentration (IC50) in data set [1] is 1490 nM. Besides, the inhibitory constant (Ki) in data set [2] came to 0.62 nM; in data set [3], 2.7 nM; in data set [4], 15 nM.
`CNC(=O)[C@H](Cc1ccccc1)NC(=O)[C@H](CC(C)C)[C@@](O)(COC1CCCCO1)C(=O)NO` (stereo partly drawn) [Example 6, [(2R,3R)-3-Hydroxy-4-hydroxyamino-2-isobutyl-3-(tetrahydro-pyran-2-yloxymethyl)succinyl]-L-phenylalanine-N-methylamide] came in with an IC50 in data set [1] of 65400 nM. In addition, the values for the inhibition constant Ki in data set [2], in data set [3] and in data set [4] were 23 nM, 67 nM and 430 nM, respectively.
In data set [1] (at 100 microM), `CNC(=O)[C@H](Cc1ccccc1)NC(=O)[C@H](CC(C)C)[C@](O)(CO)C(=O)NO` [Example 7, [(2R,3S)-3-Hydroxy-4-hydroxyamino-3-hydroxymethyl-2-isobutyl-succinyl]-L-phenylalanine-N-methylamide] showed an inhibition at 100 µM of 90%. Further, in the data set “Aqueous solubility”, the concentration in solution (solubility) was 6000 µg/mL (≈ 15.2 mM). Also, the inhibition constant Ki in data set [2] turned out to be 3.1 nM; in data set [3], 1.5 nM; in data set [4], 32 nM.
The compound `CNC(=O)[C@@H](NC(=O)[C@H](CC(C)C)[C@@](COC1CCCCO1)(OC1CCCCO1)C(=O)NO)C(C)(C)C` (stereo partly drawn) [Example 8, [(2R,3S)-4-Hydroxyamino-2-isobutyl-3-(2-tetrahydropyranyl)oxy-3-(2-tetrahydropyranyl)oxymethylsuccinyl]-L-tert-leucine-N-methylamide] returned a solubility in “Aqueous solubility” of 10000 µg/mL (≈ 18.9 mM). Besides, the Ki came out at 40 nM in data set [2], 45 nM in data set [3] and 1100 nM in data set [4].
The corresponding values for `CNC(=O)[C@@H](NC(=O)[C@H](CC(C)C)[C@](O)(COC(C)=O)C(=O)NO)C(C)(C)C` [Example 9, [(2R,3S)-3-Acetoxymethyl-3-hydroxy-4-hydroxyamino-2-isobutyl-succinyl]-L-tert-leucine-N-methylamide] are more than 9000 µg/mL, 1.7 nM, 2.2 nM and 110 nM.
The corresponding values for `CC(=O)OC[C@](O)(C(=O)NO)[C@@H](CC(C)C)C(=O)N[C@H](C(=O)Nc1ccncc1)C(C)(C)C` [Example 11, [(2R,3S)-3-Acetoxymethyl-3-hydroxy-4-hydroxyamino-2-isobutyl-succinyl]-L-tert-leucine-N-(4-pyridyl)amide] are 3400 µg/mL (≈ 7.29 mM), 4.7 nM, 7.3 nM and 4.9 nM.
Taken in the same sequence, the figures for `CC(C)C[C@@H](C(=O)N[C@H](C(=O)Nc1ccncc1)C(C)(C)C)[C@](O)(CO)C(=O)NO` [Example 12, [(2R,3S)-3-Hydroxy-4-hydroxyamino-3-hydroxymethyl-2-isobutyl-succinyl]-L-tert-leucine-N-(4-pyridyl)amide] were more than 10000 µg/mL, 9.5 nM, 6.8 nM and 10 nM.
`CNC(=O)[C@@H](NC(=O)[C@H](CC(C)C)[C@](O)(COC(=O)C(C)(C)C)C(=O)NO)C(C)(C)C` [Example 13, [(2R,3S)-3-Hydroxy-4-hydroxyamino-2-isobutyl-3-(tri-methylacetoxy)methyl-succinyl]-L-tert-leucine-N-methylamide] displayed a solubility in the data set “Aqueous solubility” of 1300 µg/mL (≈ 2.92 mM). For the same compound, the inhibition constant Ki in data set [2] stood at 6.5 nM; in data set [3], 3.4 nM; in data set [4] it was 71 nM.
Taken in the same sequence, the figures for `CNC(=O)[C@H](Cc1ccccc1)NC(=O)[C@H](CC(C)C)C1(C(=O)NO)CC1` [Example 20, [2R-(1-Hydroxyaminocarbonyl)cyclopropyl-4-methylpentanoyl]-L-phenylalanine-N-methylamide] were 5800 µg/mL (≈ 15.4 mM), 19 nM, 25 nM and 880 nM.
In “Aqueous solubility”, `CC(C)C[C@@H](C(=O)N1CCOCC1)[C@](O)(COC(=O)c1ccccc1)C(=O)NO` [Example 22, 1-[(2R,3S)-3-Benzoyoloxymethyl-3-hydroxy-4-hydroxyamino-2-isobutylsuccinyl]morpholine] had a solubility of 1900 µg/mL (≈ 4.65 mM).
On the same count and under the same terms, the same measure for `CC(=O)OC[C@](O)(C(=O)NO)[C@@H](CC(C)C)C(=O)N1CCCCC1` [Example 23, 1-[(2R,3S)-3-Acetoxymethyl-3-hydroxy-4-hydroxyamino-2-isobutylsuccinyl]piperidine]: 5000 µg/mL (≈ 14.5 mM).
On the same count and under the same terms, the same measure for `CC(C)C[C@@H](C(=O)N1CCCCC1)[C@](O)(CO)C(=O)NO` [Example 24, 1-[(2R,3S)-3-Hydroxy-4-hydroxyamino-3-hydroxymethyl-2-isobutyl-succinyl]piperidine]: more than 6000 µg/mL.
Consider `CC(C)C[C@@H](C(=O)N1CCOCC1)[C@](O)(COC(=O)C(C)(C)C)C(=O)NO` [Example 25, 1-[(2R,3S)-3-Hydroxy-4-hydroxyamino-2-isobutyl-3-(trimethyl-acetoxy)methylsuccinyl]morpholine], for which, in the data set “Aqueous solubility”, the solubility was more than 8000 µg/mL.
